Source: patent US7601739B2, “Compounds having antiestrogenic and tissue selective estrogenic properties, and compounds with anti-androgenic properties for treatment of prostate cancer and androgen receptor dependent diseases” (Virgina Commonwealth University, priority 2006, dated 2009)
Entries after “also recorded” stand apart in the source; their conditions may differ.

Columns and labels:
[1] = molecular target: T1, hERα (Homo sapiens, UniProt P03372); test: Transient transfection reporter assay for hERα in MCF-7 cells; format: cell-based; design: Relative Estrogenic Activity: dose or concentration left out as unconfirmed; settings: for Relative Estrogenic Activity: MCF-7 cells transfected with hERα, DMSO set as 1; for estrogenic effect: MCF-7 cells, hERα, compared with DMSO and tamoxifen; for antiestrogenic / inhibition activity: against 1 nM estrogen; for Relative Antiestrogenic Activity at 2.5 μM: with 1 nM estradiol, 1 nM E2 used as reference (1)
T1 construct: mammalian expression plasmid containing full length human ER cDNA, pCMV-hER; expressed in transfected cells; host or cells: MCF-7 human breast cancer cells
T1 sequence (P03372 1-595): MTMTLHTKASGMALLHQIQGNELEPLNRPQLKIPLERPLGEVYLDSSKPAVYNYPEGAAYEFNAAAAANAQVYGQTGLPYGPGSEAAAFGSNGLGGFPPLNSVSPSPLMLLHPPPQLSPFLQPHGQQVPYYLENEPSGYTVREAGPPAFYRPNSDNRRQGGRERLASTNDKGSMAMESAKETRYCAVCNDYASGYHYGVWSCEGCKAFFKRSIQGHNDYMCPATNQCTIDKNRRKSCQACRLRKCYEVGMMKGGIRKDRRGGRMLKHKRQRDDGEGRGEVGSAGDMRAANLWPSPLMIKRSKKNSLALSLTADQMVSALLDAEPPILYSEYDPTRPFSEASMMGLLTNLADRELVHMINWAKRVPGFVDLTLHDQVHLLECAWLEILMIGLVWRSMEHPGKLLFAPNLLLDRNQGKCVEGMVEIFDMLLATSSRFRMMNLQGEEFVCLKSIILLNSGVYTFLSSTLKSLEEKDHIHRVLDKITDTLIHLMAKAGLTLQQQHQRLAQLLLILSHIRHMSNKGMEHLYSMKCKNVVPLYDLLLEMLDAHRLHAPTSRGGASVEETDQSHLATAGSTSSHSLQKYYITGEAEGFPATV
Experimental: For the transient transfection reporter assays, the cells were plated in triplicate in 12-well plates at a density of 300000 cells/well in the phenol red-free DMEM (GIBCO/BRL, Grand Island, N.Y.) supplemented with 10% charcoal-stripped fetal bovine serum (Hyclone, Logan, Utah), Penicillin (100 unit/ml)/Streptomycin ([…]), 2 mML-glutamine and 1 mM sodium Pyruvate. 24 hrs later, the cells were transfected with three plasmids by using Superfect transfection kit (Qiagen, Valencia, Calif.). For the detection of hER activity, cells were transfected with 2 g hER expression plasmid (pCMV-ER ), 6 g luciferase reporter plasmid containing estrogen receptor response element (PGL-TATA-Luc), and 600 ng normalization control, β-galactosidase reporter plasmid (pCMV ). For the detection of hER activity, cells were transfected with 3 ug hER expression plasmid (pcDNA3.1-hER), 6 g luciferase reporter plasmid containing estrogen receptor response element (PGL-TATA-Luc), and 600 ng pCMV. For determining the influence of ER's major coactivator in breast, AIB 1, 2 g pcDNA3.1-AIB1 was added into the transfection plasmid solution mentioned previously.
The transfected cells were rinsed with PBS and treated with various concentrations of test molecules and one […] (vehicle, DMSO or methanol) in phenol red-free culture medium. After incubation for further 24 hrs, the cells were washed with PBS and lysed with lysis buffer (Pierce, Rockford, Ill.). The lysate was used to determine the luciferase activity for ER's activity and the β-galactosidase activity for the normalization of transfection efficiency.
For the luciferase activity assay, 20 μl of lysate and 100 μl luciferase assay buffer (Promega, Madison, Wis.) were added into a well of 96-well plate. The luminescence was detected by using luminescence microplate reader, LumiCount (Packard, Boston, Mass.). For the β-galactosidase activity assay, […] β-galactosidase assay buffer (Clontech, Palo Alto, Calif.) were added into a well of 96-well plate. The β-galactosidase activity was measured as luminescence strength by using luminescence microplate reader, LumiCount (Packard, Boston, Mass.). The normalized reporter activity was calculated by the luciferase activity divided by that of β-galactosidase.
The transient transfection reporter assay was used to determine the estrogenic or antiestrogenic activity of tested compounds in employed human breast cancer cells, MCF-7 cells that are cotransfected with hERα expression and reporter plasmids. […] […] The estrogenic (antiestrogenic) activity was determined by dividing the luciferase activity by the β-galactosidase activity. To determine the influence of estrogen receptor's major coactivator in breast cancer, AIB1, for the compounds' estrogenic activity, the expression vector of AIB1 was additionally cotransfected with the plasmids mentioned above.

[2] = tested on: MDA-MB-231 cells; test: hER negative breast cancer cell proliferation assay; format: cell-based, human; settings: hER negative cell line
Experimental: MCF-7 or MDA-MB-231 cells were inoculated into 12-well culture plates at 10000 cells in 2 ml maintained medium per well. Cells were allowed to attach to the bottom for 24 hrs incubation, then the seeding medium was removed and replaced by the experimental medium (phenol red-free DMEM supplemented with 5% charcoal-stripped fetal bovine serum and Penicillin (100 unit/ml)/Streptomycin ([…])). After 24 hr incubation, the test molecules dissolved in DMSO were added in the wells. […] The culture was continued for 3 days and the medium and tested compounds were replaced every two days. The final cell numbers were estimated with CellTiter proliferation assay kit (Promega, Madison, Wis.) by measuring the absorbance at 570 nm, which is directly proportional to the number of living cells in the culture.
In this assay, MDA-MB-231 breast cancer cell line, a hER negative cell line, was used. DMSO was used as reference.

[3] = molecular target: T2, hERα (Homo sapiens, UniProt P03372); test: Yeast two-hybrid and filter lift assay of hERα dimerization; format: cell-based
T2 construct: the full length hERα was inserted into pGAD-GAL4 and pGBD-GAL4 vectors; expressed in transfected cells; host or cells: S. cerevisiae Y190 transformed with pGBT-hER (pGBKT7) and pGAD-hER (pGADT7)
T2 sequence (P03372 1-595) 1: T1 sequence (P03372 1-595)
T2 sequence (P03372 1-595) 2: T1 sequence (P03372 1-595)
Experimental: The transformed yeasts with yeast two-hybrid vectors were cultured in synthetic medium lacking trytophan, and leucine. […] After that, the membranes were soaked in 0.4 ml Z-buffer/Xgal (60 mM Na2HPO4, 40 mM NaH2PO410 mM KCl, 1 mM MgSO4, 0.1% SDS, 50 mM -mercaptoethanol, 20 mM Xgal). The pictures of the results were taken within 2 and 3 hours after the -galactosidase assay was processed.
Dimerization of estrogen receptor plays an essential role in regulating estrogen receptor's functions including DNA binding, transactivation, and coactivator recruitment. In this study, yeast two hybrid and filter lift assays were used to determine the ability of compounds 2 and 6 to interrupt the dimerization of hERα. For setting up yeast two hybrid assay, the full length hERα was inserted into pGAD-GAL4 and pGBD-GAL4 vectors. In pGBD-GAL4, hERα was fused to the GAL4 DNA binding domain through its N terminus. In pGAD-GA14, hERα was fused to the GAL4 activation domain through its N terminus. When the dimerization of hERα occurs mainly through its C terminus, the GAL4 DNA binding domain binds to the repeated GAL4 response element located in front of the β-gal reporter gene and the whole complex, GAL4-BD/hERα/hERα/GAL4-AD, turns on the synthesis of the product of β-gal reporter gene. […] Filter lift assay in which X-gal was used, was employed to qualitatively determine the activity of β-galactosidase.

SMILES | Relative Estrogenic Activity [1] | estrogenic effect [1] | antiestrogenic / inhibition activity [1] | Relative Antiestrogenic Activity at 2.5 μM [1] | proliferation effects against MDA-MB-231 cells (FIG. 6, words) [2] | inhibitory activity against hERα dimerization in combination with estrogen ([3]; combined with estrogen) | blue color change of yeast colony in combination with estrogen ([3]; estrogen's colony as reference, more blue = less inhibition) | induction of hERα dimerization, compound alone ([3]; tested alone)
CCCCNC(=O)CCCCCCCCCCOCC1Cc2ccccc2CN1C(=O)c1ccc(O)cc1 (stereo not shown) [Compound 7] | 2.05 | highest estrogenic effect | moderate antiestrogenic activity | 0.76 | – | – | – | –
CCCCNC(=O)CCCCCCCCCCOCC1Cc2ccccc2CN1C(=O)c1cccc(O)c1 (stereo not shown) [Compound 6] | 1.03 | do not exert any estrogenic effects | strongest inhibition activity | 0.44 | do not inhibit or stimulate the growth | inhibitory activity is higher than tamoxifen's; also recorded: obvious inhibitory activity | slight blue color change | did not induce hERα dimerization; also recorded: do not promote the dimerization of hERα
CCCCNC(=O)CCCCCCCCCCOCC1Cc2ccccc2CN1C(=O)c1cccc(OC)c1 (stereo not shown) [Compound 4] | 0.78 | do not exert any estrogenic effects | – | 0.79 | do not inhibit or stimulate the growth | – | – | –
